For data set [1], the target named is T1, ColH-PD (Hathewaya histolytica, UniProt Q46085). Description: biochemical. Type of data set: biochemical, C. histolyticum. The following applies: for inhibition at 100 µM: read-out: Percent inhibition of ColH-PD.
Another data set deals with T2, HDAC-8 (Homo sapiens, UniProt Q9BY41).
T2 sequence (Q9BY41 1-377): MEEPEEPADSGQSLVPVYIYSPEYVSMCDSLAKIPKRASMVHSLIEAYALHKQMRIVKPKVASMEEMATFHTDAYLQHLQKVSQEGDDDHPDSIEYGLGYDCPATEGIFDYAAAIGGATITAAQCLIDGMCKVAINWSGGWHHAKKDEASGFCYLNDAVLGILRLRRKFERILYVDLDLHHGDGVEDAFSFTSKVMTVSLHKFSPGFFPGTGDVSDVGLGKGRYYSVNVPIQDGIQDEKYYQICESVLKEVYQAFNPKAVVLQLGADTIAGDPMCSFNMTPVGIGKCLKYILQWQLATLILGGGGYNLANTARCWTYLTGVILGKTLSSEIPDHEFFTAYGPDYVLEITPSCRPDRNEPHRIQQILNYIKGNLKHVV
Description: Human off-target inhibition, HDAC-8. It is filed as biochemical. How it is done:
(§1) To assess the selectivity of the compounds over human MMPs and on other bacterial collagenases, selected compounds were tested against ColG-CU and ColH-PD from C. histolyticum and ColA-CU from B. cereus strain ATCC14579. In addition, the compounds were tested on catalytic domains of three human MMPs, which are characterized by different depths of the S1′ binding pocket (MMP-1 (shallow), −2 (intermediate), and −3 (deep)). They were also tested against other important human off-targets, which are involved in gene expression and the processing of TNF-α; these include HDAC-3, -8, TACE (ADAM-17),[33],[34] and COX-1.

For the next data set, the target named is T3, MMP-3 (Homo sapiens, UniProt P08254).
T3 construct: catalytic domains of three human MMPs; purchased Sigma-Aldrich
Description: MMP inhibition assay, MMP-3. It is filed as biochemical. How it is done:
as §1
(§2) The MMP inhibition assay (Sigma-Aldrich, Saint Louise, MO) was performed as previously reported and in accordance with the manufacturer’s instructions. The fluorescence signals were measured in a CLARIOstar plate reader (BMG LABTECH, Ortenberg, Germany) at a concentration of 100 μM.

A further data set addresses HDAC-3 (Homo sapiens, UniProt O15379). Description: Human off-target inhibition, HDAC-3. It is filed as biochemical. On the procedure: as §1
Data set [2] relates to B. cereus AH187 infection. It is filed as in vivo, Galleria mellonella.
The next data set has as its system B. cereus AH187. Description: B. cereus growth inhibition assay. Type of data set: cell-based. The following applies: Bacillus cereus, read-out: MIC50 (µM) AH187.
Data set [3] deals with T4, ColG-CU (Hathewaya histolytica, UniProt Q9X721). Description: biochemical. Type of data set: biochemical, C. histolyticum. The following applies: for inhibition at 100 µM: read-out: Percent inhibition of ColG-CU.
The target of a further data set is TACE (ADAM-17) (Homo sapiens, UniProt P78536). Description: Human off-target inhibition, TACE. Type of data set: biochemical. On the procedure: as §1
Data set [4] concerns the target T5, ColQ1-CU (Bacillus cereus, UniProt B9J3S4). Description: biochemical. On the set-up: species or system B. cereus strain Q1.
The target in another data set is T6, MMP-1 (Homo sapiens, UniProt P03956).
T6 construct: catalytic domains of three human MMPs; purchased Sigma-Aldrich
T6 sequence (P03956 98-276 limits assumed): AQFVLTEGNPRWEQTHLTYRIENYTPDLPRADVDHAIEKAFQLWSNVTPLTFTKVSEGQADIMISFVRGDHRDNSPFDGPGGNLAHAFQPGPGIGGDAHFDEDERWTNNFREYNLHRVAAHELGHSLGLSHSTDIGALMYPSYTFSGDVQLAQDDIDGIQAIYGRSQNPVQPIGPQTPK
Description: MMP inhibition assay, MMP-1. It is filed as biochemical. How it is done: as §1, §2

Data set [5] addresses T7, ColA-CU (Bacillus cereus, UniProt Q81BJ6). Description: biochemical. Type of data set: biochemical, B. cereus strain ATCC14579. The following applies: for inhibition at 100 µM: read-out: Percent inhibition of ColA-CU.
The next data set deals with T8, MMP-2 (Homo sapiens, UniProt P08253).
T8 construct: catalytic domains of three human MMPs; purchased Sigma-Aldrich
Description: MMP inhibition assay, MMP-2. It is filed as biochemical. How it is done: as §1, §2

For a further data set, the target named is ColQ1-FL (Bacillus cereus, UniProt B9J3S4). Type of data set: biochemical. The following applies: 12.5–1.5 μM tested, SDS-PAGE.
Data set [6] relates to NHDF cells infected with B. cereus. Description: NHDF infection model, cell morphology/attachment and fibrillar collagen (picrosirius red). It is filed as cell-based, human. The following applies: B. cereus infection, 5 h.
Data set [7] relates to MDCK II cells infected with B. cereus AH187. It is filed as cell-based, canine.
Data set [8] relates to B. cereus collagenases released in the NHDF infection model. It is filed as cell-based, B. cereus AH187.
For data set [9], the target named is T1, ColH-PD. Type of data set: biochemical, C. histolyticum.
A short description of data set [10]: in vitro. As to conditions: human, HepG2 cells (hepatocellular carcinoma).
In data set [11] the target is T4, ColG-CU. Type of data set: biochemical, C. histolyticum. The following applies: rapid dilution.
Data set [12] in a line: in vitro. As to conditions: human, HEK293 cells (embryonal kidney).
A further data set has as its target COX-1 (Homo sapiens, UniProt P23219). Description: Human off-target inhibition, COX-1. Type of data set: biochemical. On the procedure: as §1
Data set [13] can be described thus: in vitro. The following applies: dog, MDCK II cells (Madin–Darby canine kidney II).
Data set [14] concerns the target T5, ColQ1-CU. It is filed as biochemical, B. cereus. The following applies: for Reversibility of inhibition, ColQ1-CU: rapid dilution.
Data set [15] is described as follows: in vitro. The following applies: human, NHDF cells (normal human dermal fibroblasts).
Data set [16] has as its target T7, ColA-CU. Type of data set: biochemical, B. cereus. The following applies: rapid dilution.
The target of data set [17] is T5, ColQ1-CU. Type of data set: binding, B. cereus. As to conditions: intact protein HPLC-MS, overnight treatment.
[18] abbreviates: AH187, BHI medium, 37 °C, 48 h, 200–3 μM.

In brackets after ≈: the same amount, converted by molar mass. Entries after “also recorded” stand apart in the source; their conditions may differ. Read-outs that look alike come from different tables or passages of the source.

Five compounds from paper PMC9574867, “Discovery and Characterization of Synthesized and FDA-Approved Inhibitors of Clostridial and Bacillary Collagenases” (Journal of Medicinal Chemistry, 2022) can be followed below.

A word on the inhibition: it is how much of the control response was suppressed. In general, IC50 refers to the concentration at which inhibition is half-maximal. For orientation: MIC50 means an inhibitory concentration at the 50% level, which refers to growth in some studies and to a panel of isolates in others. As usually defined, the Ki is the equilibrium dissociation constant of an inhibitor or competing ligand from its target. A low value points to a stronger hold on the target.

T4 sequence (Q9X721 111-786): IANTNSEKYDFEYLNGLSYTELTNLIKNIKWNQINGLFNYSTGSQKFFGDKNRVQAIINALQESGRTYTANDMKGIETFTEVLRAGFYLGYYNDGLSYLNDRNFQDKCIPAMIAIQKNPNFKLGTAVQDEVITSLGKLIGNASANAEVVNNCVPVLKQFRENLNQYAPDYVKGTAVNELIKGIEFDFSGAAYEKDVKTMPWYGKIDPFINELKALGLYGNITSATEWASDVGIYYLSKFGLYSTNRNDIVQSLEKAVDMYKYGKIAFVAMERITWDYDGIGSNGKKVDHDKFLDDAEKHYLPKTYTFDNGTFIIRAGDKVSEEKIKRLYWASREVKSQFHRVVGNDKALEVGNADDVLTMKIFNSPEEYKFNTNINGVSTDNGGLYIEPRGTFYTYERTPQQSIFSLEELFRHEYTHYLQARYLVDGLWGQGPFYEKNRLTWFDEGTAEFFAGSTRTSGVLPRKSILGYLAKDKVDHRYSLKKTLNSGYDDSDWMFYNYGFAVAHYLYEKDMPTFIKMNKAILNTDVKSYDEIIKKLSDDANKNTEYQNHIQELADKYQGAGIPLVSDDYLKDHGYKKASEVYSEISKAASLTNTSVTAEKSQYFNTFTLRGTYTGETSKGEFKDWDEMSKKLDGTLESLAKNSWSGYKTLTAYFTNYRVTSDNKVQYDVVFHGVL
T7 sequence (Q81BJ6 93-764): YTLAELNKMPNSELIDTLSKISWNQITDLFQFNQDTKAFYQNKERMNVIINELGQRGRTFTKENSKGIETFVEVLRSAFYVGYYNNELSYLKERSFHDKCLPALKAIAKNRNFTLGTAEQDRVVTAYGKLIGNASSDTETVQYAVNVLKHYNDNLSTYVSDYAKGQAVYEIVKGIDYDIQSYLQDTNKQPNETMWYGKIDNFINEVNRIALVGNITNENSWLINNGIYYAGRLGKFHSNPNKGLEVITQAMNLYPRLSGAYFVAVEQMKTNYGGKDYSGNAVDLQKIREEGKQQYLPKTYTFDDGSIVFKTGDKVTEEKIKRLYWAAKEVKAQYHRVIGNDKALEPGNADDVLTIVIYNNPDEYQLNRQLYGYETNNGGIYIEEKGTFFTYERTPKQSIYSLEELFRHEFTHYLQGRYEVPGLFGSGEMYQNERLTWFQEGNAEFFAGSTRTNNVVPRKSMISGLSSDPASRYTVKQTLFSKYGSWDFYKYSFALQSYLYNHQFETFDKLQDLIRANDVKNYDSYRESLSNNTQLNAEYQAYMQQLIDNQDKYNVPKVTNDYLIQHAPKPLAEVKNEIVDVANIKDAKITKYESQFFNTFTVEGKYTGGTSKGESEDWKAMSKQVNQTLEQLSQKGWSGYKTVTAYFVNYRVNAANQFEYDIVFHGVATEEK
T1 sequence (Q46085 331-721 limits assumed): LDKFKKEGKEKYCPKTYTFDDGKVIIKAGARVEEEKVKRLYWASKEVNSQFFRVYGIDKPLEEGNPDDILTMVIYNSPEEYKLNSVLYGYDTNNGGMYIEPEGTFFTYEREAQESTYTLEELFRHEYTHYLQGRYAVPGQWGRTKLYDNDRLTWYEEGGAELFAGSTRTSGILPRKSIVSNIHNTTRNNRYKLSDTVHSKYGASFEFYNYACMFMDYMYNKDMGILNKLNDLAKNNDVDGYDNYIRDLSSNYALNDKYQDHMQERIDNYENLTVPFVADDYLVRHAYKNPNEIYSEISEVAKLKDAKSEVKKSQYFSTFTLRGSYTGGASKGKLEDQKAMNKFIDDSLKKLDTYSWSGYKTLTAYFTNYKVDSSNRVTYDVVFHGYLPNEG
T5 sequence (B9J3S4 94-765 limits assumed): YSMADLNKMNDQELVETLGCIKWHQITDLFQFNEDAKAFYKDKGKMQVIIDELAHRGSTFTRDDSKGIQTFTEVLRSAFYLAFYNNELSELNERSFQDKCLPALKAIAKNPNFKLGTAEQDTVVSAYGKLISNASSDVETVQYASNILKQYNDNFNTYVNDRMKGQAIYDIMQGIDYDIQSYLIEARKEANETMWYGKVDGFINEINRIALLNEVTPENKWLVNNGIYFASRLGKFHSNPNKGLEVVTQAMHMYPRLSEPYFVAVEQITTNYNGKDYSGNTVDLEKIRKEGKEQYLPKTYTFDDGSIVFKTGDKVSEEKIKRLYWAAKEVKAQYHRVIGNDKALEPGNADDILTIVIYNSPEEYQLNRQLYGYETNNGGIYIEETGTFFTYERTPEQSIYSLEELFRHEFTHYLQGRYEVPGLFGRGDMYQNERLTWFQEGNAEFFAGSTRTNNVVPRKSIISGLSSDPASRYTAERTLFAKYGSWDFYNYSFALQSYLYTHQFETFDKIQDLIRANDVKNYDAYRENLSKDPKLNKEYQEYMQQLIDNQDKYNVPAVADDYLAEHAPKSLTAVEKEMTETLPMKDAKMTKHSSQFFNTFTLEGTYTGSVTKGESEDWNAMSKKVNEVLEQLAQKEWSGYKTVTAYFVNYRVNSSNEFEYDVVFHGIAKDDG
Sequence of TACE (ADAM-17) (P78536 215-824): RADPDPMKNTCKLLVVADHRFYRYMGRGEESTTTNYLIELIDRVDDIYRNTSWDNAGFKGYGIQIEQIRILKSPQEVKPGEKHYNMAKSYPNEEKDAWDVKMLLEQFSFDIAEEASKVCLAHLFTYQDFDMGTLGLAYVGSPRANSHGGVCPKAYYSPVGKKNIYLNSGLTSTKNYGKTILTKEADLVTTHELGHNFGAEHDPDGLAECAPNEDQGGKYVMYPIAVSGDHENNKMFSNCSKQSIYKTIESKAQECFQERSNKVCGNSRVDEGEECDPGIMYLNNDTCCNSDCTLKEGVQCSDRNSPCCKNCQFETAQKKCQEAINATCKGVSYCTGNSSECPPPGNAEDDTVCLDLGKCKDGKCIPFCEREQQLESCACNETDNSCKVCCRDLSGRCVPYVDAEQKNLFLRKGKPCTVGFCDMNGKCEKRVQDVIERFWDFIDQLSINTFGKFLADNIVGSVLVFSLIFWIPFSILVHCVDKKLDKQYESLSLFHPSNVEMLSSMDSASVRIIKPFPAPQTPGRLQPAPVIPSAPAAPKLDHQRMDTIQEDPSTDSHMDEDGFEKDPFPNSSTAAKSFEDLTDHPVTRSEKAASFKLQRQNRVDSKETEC
Sequence of HDAC-3 (O15379 whole entry): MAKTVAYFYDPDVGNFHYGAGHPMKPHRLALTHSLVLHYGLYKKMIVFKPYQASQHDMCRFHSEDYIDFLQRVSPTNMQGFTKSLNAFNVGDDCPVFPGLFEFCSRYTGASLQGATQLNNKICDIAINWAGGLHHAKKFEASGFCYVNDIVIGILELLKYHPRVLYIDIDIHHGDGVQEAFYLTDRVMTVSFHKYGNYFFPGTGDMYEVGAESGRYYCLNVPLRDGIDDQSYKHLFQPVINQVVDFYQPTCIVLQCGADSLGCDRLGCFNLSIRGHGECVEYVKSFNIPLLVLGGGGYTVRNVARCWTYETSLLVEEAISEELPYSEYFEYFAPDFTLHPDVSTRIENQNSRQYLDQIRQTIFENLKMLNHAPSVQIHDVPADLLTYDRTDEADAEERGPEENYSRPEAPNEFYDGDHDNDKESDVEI
Sequence of HDAC-3 (Q9Y618 395-489 partner limits assumed): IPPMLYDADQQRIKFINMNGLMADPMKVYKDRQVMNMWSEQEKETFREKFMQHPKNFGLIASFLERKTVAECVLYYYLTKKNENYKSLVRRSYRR
T3 sequence (P08254 100-272 limits assumed): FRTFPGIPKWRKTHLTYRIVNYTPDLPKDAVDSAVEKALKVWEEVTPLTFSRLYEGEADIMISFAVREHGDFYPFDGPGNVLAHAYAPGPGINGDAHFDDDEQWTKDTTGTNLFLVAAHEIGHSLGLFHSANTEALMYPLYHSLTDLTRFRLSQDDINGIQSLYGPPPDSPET
T8 sequence (P08253 110-444 limits assumed): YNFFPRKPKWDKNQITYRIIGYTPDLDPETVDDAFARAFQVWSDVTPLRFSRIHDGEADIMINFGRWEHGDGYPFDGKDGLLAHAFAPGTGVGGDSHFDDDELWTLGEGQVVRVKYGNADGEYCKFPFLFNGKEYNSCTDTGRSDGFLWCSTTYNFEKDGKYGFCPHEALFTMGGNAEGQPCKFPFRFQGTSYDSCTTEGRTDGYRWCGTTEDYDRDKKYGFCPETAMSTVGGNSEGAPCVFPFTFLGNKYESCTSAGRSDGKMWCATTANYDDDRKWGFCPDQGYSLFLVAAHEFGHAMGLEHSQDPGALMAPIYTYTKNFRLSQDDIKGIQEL
Sequence of ColQ1-FL (B9J3S4 94-965 limits assumed): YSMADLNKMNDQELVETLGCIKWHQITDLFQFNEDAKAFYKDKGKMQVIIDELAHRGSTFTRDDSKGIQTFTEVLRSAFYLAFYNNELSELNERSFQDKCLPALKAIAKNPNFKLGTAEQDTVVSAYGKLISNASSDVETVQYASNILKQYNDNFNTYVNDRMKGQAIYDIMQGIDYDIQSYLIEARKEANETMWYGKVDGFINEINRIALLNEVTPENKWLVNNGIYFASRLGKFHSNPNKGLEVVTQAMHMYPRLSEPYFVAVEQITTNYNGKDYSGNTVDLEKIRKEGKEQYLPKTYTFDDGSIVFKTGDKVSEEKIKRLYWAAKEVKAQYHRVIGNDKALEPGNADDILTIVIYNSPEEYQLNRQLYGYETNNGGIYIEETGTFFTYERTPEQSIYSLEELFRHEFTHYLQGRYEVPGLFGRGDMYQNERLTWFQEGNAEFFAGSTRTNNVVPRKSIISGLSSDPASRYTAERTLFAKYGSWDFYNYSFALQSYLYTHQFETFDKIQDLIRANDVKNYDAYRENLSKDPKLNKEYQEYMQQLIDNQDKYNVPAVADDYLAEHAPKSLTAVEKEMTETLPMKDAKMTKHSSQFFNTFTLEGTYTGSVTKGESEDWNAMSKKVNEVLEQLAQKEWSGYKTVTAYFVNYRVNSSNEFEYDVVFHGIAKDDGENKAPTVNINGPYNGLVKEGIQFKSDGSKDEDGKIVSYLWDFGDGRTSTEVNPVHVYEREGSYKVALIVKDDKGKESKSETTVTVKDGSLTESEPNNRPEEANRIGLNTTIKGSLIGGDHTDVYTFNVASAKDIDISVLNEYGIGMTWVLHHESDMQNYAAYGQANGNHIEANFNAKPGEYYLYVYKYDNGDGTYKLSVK

`NCCCC(O)(P(=O)([O-])O)P(=O)(O)O.[Na+]` [Alendronate sodium, reference compound]: the inhibition at 100 µM on ColH-PD [1] is 25 ± 5%; at ColG-CU [3], 28 ± 7%; against ColQ1-CU [4] it was 76 ± 1%; at ColA-CU [5], 18 ± 4%. Besides, the IC50 on HDAC-8, on MMP-3, at HDAC-3, against TACE (ADAM-17), on MMP-1 and against MMP-2 was above 100 µM each time. Besides, the “Increase in survival of infected larvae” value in data set [2] (in vivo) turned out to be 40%. Also, the “Survival of infected larvae vs control without inhibitor” value in data set [2] (in vivo) was “ameliorated the survival of the larvae in a dose-dependent manner”. Besides, in the data set with B. cereus AH187 (AH187, 48 h), the MIC50 came to 200 µM.
Consider `O=P(O)(O)c1nc2ccc(Br)cc2nc1P(=O)(O)O` [Compound 10, (6-Bromoquinoxaline-2,3-diyl)bis(phosphonic acid)], for which the “Protection of Col I chains from cleavage by ColQ1-FL” value at ColQ1-FL is “showed inhibition only at 12.5 μM”. Moreover, the MIC50 in the data set with B. cereus AH187 (setting [18]) turned out to be 200 µM (≈ 73.8 µg/mL). The “Effect on cell morphology and ECM collagen content of infected NHDF cells” value in data set [6] is “smaller effect at all concentrations tested (except for 10, which resulted in higher cell viability and attachment at 100 μM)”. The concentration for half-maximal inhibition (IC50) on ColQ1-CU [4] turned out to be 2.5 ± 0.2 µM. Moreover, the “TEER of infected MDCK II cells” value in [7] is listed as “failed to sustain the TEER of the infected cells”. In data set [8], the “Inhibitory effect on gelatinolytic activity of secreted collagenases” value (“Inhibitory effect” below) is listed as “inhibited the collagenase activity toward gelatin only marginally at 100 μM”.
With `O=P(O)(O)c1nc2ccc(-c3ccc(Cl)cc3)cc2nc1P(=O)(O)O` [Compound 15, (6-(4-Chlorophenyl)quinoxaline-2,3-diyl)bis(phosphonic acid)], at ColH-PD [9], the “Reversibility of inhibition, ColH” value is recorded as “reversed compared to ColA”. In addition, the inhibition at 100 µM at ColH-PD [1] (100 μM) came to 97 ± 5%; at ColG-CU [3] (100 μM) it was 70 ± 8%; on ColA-CU [5] (100 μM), 86 ± 8%. For the same compound, the half-maximal inhibitory concentration (IC50) against HDAC-8, at MMP-3, on HDAC-3, in the data set “in vitro [10]”, in “in vitro [12]” and on COX-1 was above 100 µM each time. Also, the concentration for half-maximal inhibition (IC50) was above 200 µM in “in vitro [13]”; above 100 µM against TACE (ADAM-17); 10.5 µM against ColQ1-CU [4]; above 100 µM on MMP-1; above 100 µM against MMP-2; above 200 µM in “in vitro [15]”. Also, the “Protection of Col I chains from cleavage by ColQ1-FL” value at ColQ1-FL is given as “inhibited the collagenase activity at all concentrations tested”. In addition, the “Effect on survival of infected larvae” value in [2] (25 μM) is “reduced effect”. Further, the “Increase in survival of infected larvae” value in data set [2] (100 μM) was “about 35%”. Further, the “Survival of infected larvae vs control without inhibitor” value in data set [2] (37 °C, 3 days) is listed as “ameliorated the survival of the larvae in a dose-dependent manner”. Further, the “Reversibility of inhibition, ColG” value at ColG-CU [11] was “rapidly reversible inhibitors”. The MIC50 with B. cereus AH187 (setting [18]) came to 100 µM (≈ 40.1 µg/mL). Further, the “Concentration showing dose-dependent effects on NHDF morphology, fibrillar ECM collagen content and LDH release” value in data set [6] is recorded as at least 100 μM. The “TEER of infected MDCK II cells” value in data set [7] is recorded as “preserve the TEER value”. Further, at ColQ1-CU [14] (30 min preincubation at 10-fold IC50, 100-fold dilution), the “Residual activity after rapid dilution” value is listed as “less than 9%”. The “Reversibility of inhibition, ColQ1-CU” value at ColQ1-CU [14] is on record as “irreversible or very slowly dissociating inhibitors”. In addition, the “Inhibitory effect” value in data set [8] is on record as “clear dose-dependent inhibitory effect on gelatin turnover”. The “Reversibility of inhibition, ColA-CU” value at ColA-CU [16] is given as “progress curve typical for slowly dissociating inhibitors”.
In the case of `CC(=O)Nc1ccccc1OCc1cn(CCNC(=O)C(Cc2ccccc2)C(=O)NO)nn1` (centres unmarked) [Compound 33, N-[2-[4-[(2-Acetamidophenoxy)methyl]triazol-1-yl]ethyl]-2-benzyl-3-(hydroxyamino)-3-oxo-propanamide], the “Reversibility of inhibition, ColH” value at ColH-PD [9] was “rapidly reversible inhibitors”. The Ki at ColH-PD [1] stood at 1.7 ± 0.2 µM; on ColG-CU [3] it was 18.4 ± 0.6 µM; on ColQ1-CU [4], 0.82 ± 0.07 µM; on ColA-CU [5], 4.7 ± 0.3 µM. The “Reversibility of inhibition, ColG” value at ColG-CU [11] is recorded as “rapidly reversible inhibitors”. Also, the “Effect on cell morphology and ECM collagen content of infected NHDF cells” value in [6] is on record as “neither able to rescue cell morphology nor able to maintain the collagen content of the ECM”. Half-maximal inhibition against ColQ1-CU [4] (IC50) was put at 1.6 ± 0.1 µM. Further, the “Reversibility of inhibition, ColQ1-CU” value at ColQ1-CU [14] is reported as “rapidly reversible inhibitors”. The “Inhibitory effect” value in data set [8] is reported as “no inhibitory effect on the collagenase in the zymography at all tested concentrations; also recorded: no inhibition of the collagenase in the gelatin zymography was detected”. For the same compound, at ColA-CU [16], the “Reversibility of inhibition, ColA-CU” value is given as “rapidly reversible inhibitors”.
Consider `CNC(=O)[C@H](Cc1c[nH]c2ccccc12)NC(=O)[C@@H](CC(=O)NO)CC(C)C` [Ilomastat, reference compound], for which the “Covalent modification of ColQ1-CU” value at ColQ1-CU [17] is “No molecular masses displayed a mass shift indicating a covalently bound inhibitor”.
